Reference: patent US8778871B2 (Takeda Pharmaceutical Company Limited, priority 2004, dated 2014)
Starred links: 1 amine or outer side, 2 acyl side, 3 side chain; linkers in the order of their positions; H or OH if unused. Non-standard residues stand in square brackets, D forms with d. Residues, ends and D or L forms follow the SMILES beside them. No end group written: not given here. *: point of attachment. Arg(Me) = CNC(=N)NCCC[C@H](N)C(=O)O; Tryptamide = c1ccc2c(CCN*)c[nH]c2c1; X2 = O=C(Cc1c[nH]c2ccccc12)*; CO = O=C([*:1])[*:2]; Bz = O=C(c1ccccc1)*; azaGly = NNC(=O)O

Key:
hOT7T175 [1] = molecular target: T1, hOT7T175 (Homo sapiens, UniProt Q969F8, L364H); type: cell-based; conditions: hOT7T175/CHO, FLIPR, evaluation for 40 seconds after initiation of the reaction
T1 construct: expressed in transfected cells
T1 sequence (Q969F8 whole entry L364H): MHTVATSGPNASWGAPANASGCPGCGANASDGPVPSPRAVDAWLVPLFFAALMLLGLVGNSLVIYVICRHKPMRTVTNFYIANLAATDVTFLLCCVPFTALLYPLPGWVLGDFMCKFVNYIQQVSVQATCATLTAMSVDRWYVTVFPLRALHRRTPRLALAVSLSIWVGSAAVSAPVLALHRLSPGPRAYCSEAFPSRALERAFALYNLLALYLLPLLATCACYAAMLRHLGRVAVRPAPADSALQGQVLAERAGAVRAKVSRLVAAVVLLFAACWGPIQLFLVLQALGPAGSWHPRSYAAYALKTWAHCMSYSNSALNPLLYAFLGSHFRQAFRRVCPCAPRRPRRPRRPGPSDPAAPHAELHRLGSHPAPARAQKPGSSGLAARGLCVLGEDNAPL
Procedure: The intracellular Ca ion level-increasing activity was measured using FLIPR as in TEST EXAMPLE 2.

hOT7T175 [2] = molecular target: T2, hOT7T175 (Homo sapiens, UniProt Q969F8); test: Intracellular Ca ion level-increasing activity using FLIPR (180 seconds; specific activity to Metastin (1-54)); type: cell-based; conditions: hOT7T175/CHO, change in intracellular calcium ion level for 180 seconds, Tables 21-23
T2 construct: expressed in transfected cells
T2 sequence (Q969F8 whole entry L364H): as above

## [dY][dW]ATF[azaGly]L[Arg(Me)]W-NH2 [Compound No. 511]
hOT7T175 [1]
  Specific Act. (EC50/MS10 EC50): 0.5
hOT7T175 [2]
  intracellular Ca ion level-increasing activity [specific activity to Metastin (1-54)]: 10

## 1-Azetidinecarbonyl-Phe-AzaGly-Leu-Arg(Me)-Trp-NH2 [Compound No. 468]
hOT7T175 [1]
  Specific Act. (EC50/MS10 EC50): 5.2
hOT7T175 [2]
  intracellular Ca ion level-increasing activity [specific activity to Metastin (1-54)]: 1

## Cyclopropanecarbonyl-Phe-AzaGly-Leu-Arg(Me)-Trp-NH2 [Compound No. 447]
hOT7T175 [1]
  Specific Act. (EC50/MS10 EC50): 1.4
hOT7T175 [2]
  intracellular Ca ion level-increasing activity [specific activity to Metastin (1-54)]: 5

## Ac-NSF[azaGly]L[Arg(Me)]W-NH2 [Compound No. 510]
hOT7T175 [1]
  Specific Act. (EC50/MS10 EC50): 3.5
hOT7T175 [2]
  intracellular Ca ion level-increasing activity [specific activity to Metastin (1-54)]: 3

## 4-Aminobenzoyl-Phe-AzaGly-Leu-Arg(Me)-Trp-NH2 [Compound No. 472]
hOT7T175 [1]
  Specific Act. (EC50/MS10 EC50): 3.4
hOT7T175 [2]
  intracellular Ca ion level-increasing activity [specific activity to Metastin (1-54)]: 3

## 2-Aminoethyl-Gly-D-Tyr-Asn-Trp-Asn-Ser-Phe-Gly-Leu-Arg(Me)-Phe-NH2 [Compound No. 375]
hOT7T175 [1]
  Specific Act. (EC50/MS10 EC50): 5.2
hOT7T175 [2]
  intracellular Ca ion level-increasing activity [specific activity to Metastin (1-54)]: 2

## Bz-F[azaGly]L[Arg(Me)]F-NH2 [Compound No. 341]
hOT7T175 [1]
  Specific Act. (EC50/MS10 EC50): 2.8
hOT7T175 [2]
  intracellular Ca ion level-increasing activity [specific activity to Metastin (1-54)]: 2

## Pyrimidine-4-carbonyl-Phe-AzaGly-Leu-Arg(Me)-Trp-NH2 [Compound No. 475]
hOT7T175 [1]
  Specific Act. (EC50/MS10 EC50): 4.2
hOT7T175 [2]
  intracellular Ca ion level-increasing activity [specific activity to Metastin (1-54)]: 3

## Benzoyl-Phe-AzaGly-Leu-Arg(Me)-Trp-NH2 [Compound No. 353]
hOT7T175 [1]
  Specific Act. (EC50/MS10 EC50): 0.8
hOT7T175 [2]
  intracellular Ca ion level-increasing activity [specific activity to Metastin (1-54)]: 10

## D-Tyr-D-Pya(4)-Asn-Ser-Phe-AzaGly-Leu-Har-Phe-NH2 [Compound No. 488]
hOT7T175 [1]
  Specific Act. (EC50/MS10 EC50): 5.5
hOT7T175 [2]
  intracellular Ca ion level-increasing activity [specific activity to Metastin (1-54)]: 1

## CNC(=N)NCCC[C@H](NC(=O)[C@H](CC(C)C)NC(=O)NNC(=O)[C@H](Cc1ccccc1)NC(=O)[C@H](CO)NC(=O)[C@H](CC(N)=O)NC(=O)Cc1c[nH]c2ccccc12)C(=O)N[C@@H](Cc1ccccc1)C(N)=O [Compound No. 266, Indol-3-acetyl-Asn-Ser-Phe-AzaGly-Leu-Arg(Me)-Phe-NH2] (X2-NSF[azaGly]L[Arg(Me)]F-NH2)
hOT7T175 [1]
  Specific Act. (EC50/MS10 EC50): 5.4
hOT7T175 [2]
  intracellular Ca ion level-increasing activity [specific activity to Metastin (1-54)]: 2

## D-Tyr-D-Pya(4)-Asn-Ile-Phe-AzaGly-Leu-Arg(Me)-Trp-NH2 [Compound No. 498]
hOT7T175 [1]
  Specific Act. (EC50/MS10 EC50): 1.5
hOT7T175 [2]
  intracellular Ca ion level-increasing activity [specific activity to Metastin (1-54)]: 7

## CNC(=N)NCCC[C@H](NC(=O)[C@H](CC(C)C)NC(=O)NNC(=O)[C@H](Cc1ccccc1)NC(=O)[C@H](CO)NC(=O)[C@H](CC(N)=O)NC(=O)NCCc1c[nH]c2ccccc12)C(=O)N[C@@H](Cc1ccccc1)C(N)=O [Compound No. 279, 2-(indol-3-yl)ethylcarbamoyl-Asn-Ser-Phe-AzaGly-Leu-Arg(Me)-Phe-NH2] ({Tryptamide-CO}-NSF[azaGly]L[Arg(Me)]F-NH2)
hOT7T175 [1]
  Specific Act. (EC50/MS10 EC50): 6.4
hOT7T175 [2]
  intracellular Ca ion level-increasing activity [specific activity to Metastin (1-54)]: 5

## D-Tyr-D-Pya(4)-Thr-Ser-Phe-AzaGly-Leu-Arg(Me)-Trp-NH2 [Compound No. 493]
hOT7T175 [1]
  Specific Act. (EC50/MS10 EC50): 2.2
hOT7T175 [2]
  intracellular Ca ion level-increasing activity [specific activity to Metastin (1-54)]: 2
